A value given as a limit tells only on which side of the number the result lay.

In the case of `O=c1[nH]c2ncc(-c3ccc4[nH]ccc4c3)nc2n1CC1CCOCC1`, the melting point is 305 to 308 °C. The figure for `CN1CC(CO)CC2(OCCCO)c3cccc4[nH]cc(c34)CC12` (stereo unspecified) is 189 to 195 °C.

`O=C(Cc1ccc(I)cc1)NC[C@H]1CCCN1` returned a melting point of 120 °C. The figure for `COc1ccc(CC(C)NCC(O)c2cccc(F)c2)cc1` (stereo unspecified) is 85 to 89 °C; for `COC(=O)Nc1nc(OC)nc(OC)n1` it is 118 to 122 °C. Under `COC(=O)c1ccccc1CS(=O)(=O)NC(=O)Cc1nc(OC)cc(OC)n1` stands 98 to 101 °C; under `CCOC(=O)C1CCc2c(oc3cc(NC(C)=O)ccc23)C1` (stereo unspecified), 115 to 116 °C. The figure for `O=C1CCC(N2Cc3cc(CNC(=O)Nc4cccc(Oc5ccccn5)c4)ccc3C2=O)C(=O)N1` (stereo unspecified) is 298 to 300 °C.

`CN(C)S(=O)(=O)c1cccc(NC(=O)c2cnn3c(C(F)F)cc(-c4ccc(C(F)(F)F)cc4)nc23)c1` displayed a melting point of 197 °C.

Consider `COC(=O)CCc1cnoc1-c1ccc(Cl)s1`, for which the melting point was in the range of 34 to 35 °C. Under `Nc1ccc2sc(-c3cccnc3)nc2c1` stands 189 to 196 °C.

`CC1(C)OC(=O)Nc2ccc(-c3cccc(C#N)c3)cc21` displayed a melting point of 236 to 237 °C. Under `CCCC(=O)Oc1ccc(-c2ccc(C#N)cc2)cc1` stands 77.9 to 78.2 °C; under `CC(=O)c1ccc(OCCCOc2cc(N)c(C)cc2Br)c(CCC(F)(F)F)c1O`, 124 to 126 °C; under `CNCCC(O)(c1ccc(Br)cc1)c1ccccn1` (stereo unspecified), 81 to 88 °C. The figure for `CC(Cc1ccc(OCCCO)cc1)NCC(O)c1cccc(C(F)(F)F)c1` (stereo unspecified) is 97 to 103 °C; for `CC(=O)Nc1cccc(-c2[nH]c3cccc4c3c2CCNC4=O)c1` it is 300 to 302 °C.

`CCCC(=O)c1cnc2c(C)cccc2c1Nc1ccccc1Cl`: the melting point lay in the range of 130 to 131 °C. Under `N#CCOc1ccc2cc(Br)ccc2c1Cl` stands 126 to 127 °C; under `Nc1ccc(-n2cnc(-c3ccc(C(F)(F)F)cc3)n2)cc1Cl`, 148 °C. Under `CS(=O)(=O)CC(O)(Cn1cncn1)C(F)(F)C(F)(F)C(F)(F)C(F)(F)F` (stereo unspecified) stands 106 to 109 °C; under `CCOC(=O)c1c(N=Cc2ccc([N+](=O)[O-])s2)sc(N=Cc2ccc([N+](=O)[O-])s2)c1C(=O)OCC`, 255 to 257 °C; under `N#CCCN1CCC(c2noc3cc(F)ccc23)CC1`, 100 to 101 °C. The figure for `OCc1cccnc1N1CCN(c2nc3cc(C(F)(F)F)cc(Cl)c3[nH]2)CC1` is 252 °C; for `Cc1cc2c(cc1Cl)NC(=O)C2(N)c1ccccc1Cl` (stereo unspecified) it is 233 °C; for `CN(CCc1cccc(O)c1)c1cnc(-c2ccccc2)c(-c2ccccc2)n1` it is 158 to 161 °C. On to `CCOC(=O)c1ccc(C(=O)Nc2ccc3c(c2)CCC(C)(C)C(=O)N3C)cc1`, for which the melting point was in the range of 183 to 184 °C. Under `Oc1ccccc1N1c2ccccc2Sc2ccccc21` stands 192 to 200 °C; under `COc1ccc2c(Cc3c(Cl)cncc3Cl)nnc(N3CCOCC3)c2c1`, 179 to 180 °C. Molecule `CCCCC1NCCc2ccc(C(=O)N[C@@H](Cc3cc(F)cc(F)c3)[C@H](O)CNCc3cccc(CC)c3)cc21` (stereo partly specified) had a melting point of 121 to 124 °C. Under `CC1(C)CCC2=C(O1)c1ccccc1C(=O)C2=O` stands 154 to 156 °C. The figure for `Cc1nn(CC(=O)O)cc1C(=O)Nc1ccc(OCC(C)(C)C)c(C#N)c1` is 234 to 245 °C; for `Cn1c(NCc2cccc(NC(=O)C=Cc3ccccc3Cl)c2)nc2ccccc21` it is 188 to 191 °C; for `O=S(CC#CCOc1ccccc1)c1ccc(Cl)cc1` (stereo unspecified) it is 102 to 103 °C. The figure for `O=C([O-])C12CC[N+](Cc3ccc4c(c3)Nc3nccnc3S4)(CC1)CC2` is 229 to 230 °C. `CC(C)Nc1cccnc1N1CCN(C(=O)c2ccc(C(=O)N(CCO)c3ccccc3)cc2)CC1` showed a melting point of 71 to 72 °C.

In turn, `O=C1Nc2ccc(Br)cc2C(c2ccccc2)=NC1O` (stereo unspecified) yielded a melting point of 190 to 192 °C.

Take `COc1ccccc1-n1c(=O)[nH]c2c(C(N)=O)nc(-c3ccc(O)cc3)nc21`: the melting point was 362 to 363 °C.

As to `CSC(=Nc1ccccc1)N(c1ccccc1)c1nc(C)cc(C)n1`, the melting point fell in the range of 101 to 103 °C.

On to `CCCOC(=O)C1=C(C)NC(C)=C(C(=O)OCC2CC2)C1c1cccc([N+](=O)[O-])c1` (stereo unspecified), for which the melting point fell in the range of 167 to 168 °C. Turning to `O=C(Nc1ccc(CN2C(=O)[C@H]3CCC[C@H]3N(C(=O)CN3C(=O)c4ccccc4C3=O)c3ccccc32)cc1)c1cccc(F)c1` (relative stereo), the melting point lay within 256 to 259 °C.

In the case of `COc1cccc(CC(=O)O)c1OCCCc1cn(-c2ccc(Cl)cn2)nc1C(C)(C)C`, the melting point was in the range of 87 to 88 °C. The figure for `Cc1nc(SCC(N)=O)nc(C)c1Br` is 175 to 177 °C; for `CNC1CCN(c2ncc(C(F)(F)F)s2)C1=O` (stereo unspecified) it is 108 to 109 °C; for `COc1c(Br)c(-c2cc(C(C)C)n(C)n2)cc2oc(=O)c(Cl)c(C)c12` it is 165 °C.

`COc1cc(C(C)C)c2c(c1)S(=O)(=O)N(COc1cc(C(F)(F)F)nn1Cc1ccccc1)C2=O` gave a melting point of 116 to 118 °C. The molecule `O=C(Cc1ncccn1)c1ccc(F)cc1F` came in with a melting point of 86 to 88 °C. The figure for `CCc1n[nH]c(CC)c1CCCCCCOc1ccc(Cl)cc1` is 130 to 132 °C. Under `N#Cc1ccc(CN(O)Cc2ccc(C#N)cc2)cc1` stands 172 to 175 °C. `Nc1nc2cc(OCc3ccccc3)ccc2c2c1nc(CCCCNC(=O)Nc1ccccc1)n2CCOc1ccccc1`: the melting point is 186 to 187 °C. Under `Cc1oc(-c2ccccc2)nc1COc1cncc(COc2ccc(CC(=O)O)cc2)c1` stands 141 to 142 °C. Under `Cc1ccccc1NC(=NC#N)NC(NC(=O)Cc1ccc(Cl)cc1)C(C)(C)C` (stereo unspecified) stands 181 to 182 °C; under `Clc1ccc2c(c1)oc1cc(OCCn3ccnc3)ccc12`, 150 to 151 °C.

Molecule `COc1cc(-c2nc3ccc(OCCN4CCCC4)cc3n2Cc2ccccc2C(F)(F)F)cc(OC)c1OC` yielded a melting point of 143 °C. Under `CC(C)(C)OC(=O)N1CCN(C(=O)c2nc3c(N)nc(N)nc3nc2N)CC1` stands 245 to 250 °C; under `N#Cc1c(N2CCN(C(=O)c3ccco3)CC2)c2cc(Cl)cnc2n(CC(=O)c2ccccc2)c1=O`, 328 °C; under `Cc1ccc(C(=O)NCCCCN2CCN(C(c3ccccc3)c3ccccc3)CC2)c(O)n1`, 213 to 214 °C. `COc1ccc(-c2sc3c(c2C)c(=O)c(C#N)cn3Cc2ccccc2F)cc1`: the melting point was in the range of 215 to 216 °C. Take `O=C(CCOc1cccc(CN2CCCCC2)c1)Nc1cccnc1`: the melting point lay within 92 to 96 °C. Under `O=C1c2ccccc2C(OCCc2ccccn2)N1c1ccc2ccc(Cl)nc2n1` (stereo unspecified) stands 142 °C; under `CCC(C)C(=O)NC1CCC(CCN2CCN(c3nccc4c3OCC4)CC2)CC1` (racemic), 196 °C.

Turning to `Cc1nc2ccc(N3CCN(CCCC(=O)c4ccc(F)cc4)CC3)nc2nc1C`, the melting point was 155 to 156 °C. On to `CC1(C)CCc2c(-c3ccco3)nc3sc4c(NCCN5CCOCC5)ncnc4c3c2C1`, for which the melting point was in the range of 123 to 125 °C. In turn, `CC[C@H](C)[C@H](OCc1ccccc1)[C@@H]1[C@H]([N+](=O)[O-])[C@H](c2ccccc2)N[C@]1(C)C(=O)NCC(=O)O` returned a melting point of 89 to 90 °C. In the case of `N[C@@H](Cc1ccccc1)C(=O)N1CCC[C@H]1C(=O)OCc1ccccc1`, the melting point was 120 to 121 °C. Under `Cc1nc(-c2ccccc2C(F)(F)F)c2c(n1)N(c1ccc(C(C)C)cc1Br)CC(=O)N2` stands 238 to 239 °C; under `CC(=O)N1CCC(=C2c3ccc(Cl)cc3CCc3cccnc32)CC1`, 155 to 157 °C; under `[N-]=[N+]=C1c2ccccc2-c2ccc(Cl)cc21`, 102 to 108 °C.

Molecule `Cc1cc(-c2nnc3c4ccccc4c(OCn4cccn4)nn23)no1` registered a melting point of 235 to 237 °C. The figure for `CCOC(=O)c1cc(C#N)c(C)nc1NC` is 103 to 105 °C. The figure for `N#CN=C(Nc1ccncc1)NC1CCCCCCC1` is 198 to 199 °C; for `COc1ccc2[nH]c3cc(C(=O)OCc4ccccc4)c4c(c3c2c1)C(=O)NC4=O` it is 245 °C; for `O=Cc1cc2c(cc1[N+](=O)[O-])OC(F)(F)O2` it is 36 to 38 °C. The figure for `Cc1ccc(-c2c(N)ncnc2Cl)cc1` is 168 to 171 °C; for `CCCCCCCCCCCCCCCCCCNS(=O)(=O)c1cccc(C(F)(F)F)c1` it is 83 to 85 °C; for `O=c1[nH]c(=S)c2[nH]cnc2n1-c1ccccc1` it is > 290 °C. The molecule `CC(C)(C)c1cc(SC2CCOC2=O)cc(C(C)(C)C)c1O` (stereo unspecified) returned a melting point of 98 °C.

With `Cc1nc(Nc2ccccc2)sc1-c1ccnc(Nc2ccc(N3CCN(Cc4ccccc4)CC3)cc2)n1`, the melting point lay within 227 to 229 °C.

In the case of `COc1ccc2c(=O)c(O)cn(C)c2c1`, the melting point is 228 °C.

With `c1ccc(C(c2ccccc2)(c2ccns2)n2ccnc2)cc1`, the melting point lay in the range of 164 to 167 °C. Under `CC(C)(O)CCOc1c(-c2ccc(S(C)(=O)=O)cc2)cnn(-c2ccc(F)cc2)c1=O` stands 133 to 134 °C; under `Cn1nc(-c2ccccc2)c(CNc2ccccc2C(=O)O)c1Cl`, 192 to 193 °C; under `CCCc1nc2cc3c(cc2[nH]1)NC(=O)C3(C)C(=O)OCC` (stereo unspecified), 258 to 261 °C. The figure for `CCOC(=O)c1cccc(NC(=O)C2=C(C)OCCS2)c1` is 100 to 102 °C.

In the case of `COc1ccc2ccccc2c1-c1cc2c(c(-c3ccccc3)c1P(=O)(c1ccccc1)c1ccccc1)COC2`, the melting point was in the range of 129 to 131 °C. Under `COc1ccc(S(=O)(=O)N(CC(N)=O)c2ccc(Cl)cc2Cc2ccccc2Cl)cc1` stands 150 °C.

These data come from a melting point compilation (Tetko et al.; mined from patent text by program, amines drawn as free bases though some values may be those of a salt).
